From US7700106B2, “Therapeutic agent for ulcerative colitis” (priority 2001, dated 2010)

Experiments:
Fusobacterium varium = assay: Susceptibility of Fusobacterium varium to antimicrobial agents; type: cell-based
Description: The susceptibility to Fusobacterium varium in antimicrobial agents was examined.

| Compound | resistance of Fusobacterium varium to antimicrobial agent (Fusobacterium varium) | colonic lesions after enema (mice; mice, twenty-four hours after enema) | lesion after injection into the rectum (mice; mouse, injected into the rectum) |
| --- | --- | --- | --- |
| gentamycin | resistant | – | – |
| CC[C@H]1OC(=O)[C@H](C)[C@@H](O[C@H]2C[C@@](C)(OC)[C@@H](O)[C@H](C)O2)[C@H](C)[C@@H](O[C@@H]2O[C@H](C)C[C@H](N(C)C)[C@H]2O)[C@](C)(OC)C[C@@H](C)C(=O)[C@H](C)[C@@H](O)[C@]1(C)O [clarithromycin] | resistant | – | – |
| CCCC(=O)O [butyric acid] | – | colonic ulcers with crypt abscesses, inflammatory cell infiltration and apoptotic changes | a lesion similar to ulcerative colitis was induced |
| CC[C@H]1OC(=O)[C@H](C)[C@@H](O[C@H]2C[C@@](C)(OC)[C@@H](O)[C@H](C)O2)[C@H](C)[C@@H](O[C@@H]2O[C@H](C)C[C@H](N(C)C)[C@H]2O)[C@](C)(O)C[C@@H](C)C(=O)[C@H](C)[C@@H](O)[C@]1(C)O [erythromycin] | resistant | – | – |
| [H]/N=C(/N)N[C@H]1[C@H](O)[C@@H](O)[C@H](O[C@@H]2O[C@@H](C)[C@](O)(C=O)[C@H]2O[C@@H]2O[C@@H](CO)[C@H](O)[C@@H](O)[C@@H]2NC)[C@@H](N/C(N)=N\[H])[C@@H]1O [streptomycin] | resistant | – | – |
